Our source for the LC50, Activity and LD values is ChEMBL document CHEMBL4387737, “Synthesis of Isosteviol analogues as potential protective agents against Doxorubicin-induced cardiomyopathy in zebrafish embryos” (Bioorg Med Chem Lett, 2019).

Calls of active or inactive are those of the source. The rule behind the calls is not given here.

In data set [1] the test system is Danio rerio. Nature of the data set: Cytoprotection in myl7:EGFP transgenic zebra fish embryo assessed as reduction in DOX-induced lethal toxicity by measuring LC50 dosed at 24 hpf and measured 96 hpf (reference value: 51.56 uM). The format is functional.
Data set [2] deals with Danio rerio. Nature of the data set: Cardioprotective activity in myl7:EGFP transgenic zebra fish embryo assessed as decrease in DOX-induced pericardial edema at 100 uM dosed at 24 hpf and measured 72 hpf by fluorescent microscopy. The format is functional, organism-based.
In data set [3] the test system is Danio rerio. The data set can be described thus: Cardioprotective activity in myl7:EGFP transgenic zebra fish embryo assessed as decrease in DOX-induced morphological changes at 100 uM dosed at 24 hpf and measured 72 hpf by fluorescent microscopy. The format is functional, organism-based.
Data set [4] relates to Danio rerio. Nature of the data set: Cardioprotective activity in myl7:EGFP transgenic zebra fish embryo assessed as decrease in DOX-induced cardiac dysfunction at 100 uM dosed at 24 hpf and measured 72 hpf by fluorescent microscopy. The format is functional, organism-based.
In data set [5] the test system is Danio rerio. The data set can be described thus: Cardioprotective activity in myl7:EGFP transgenic zebra fish embryo assessed as recovery of in DOX-induced shortening fraction at 100 uM dosed at 24 hpf and measured 72 hpf by fluorescent microscopy. The format is functional, organism-based.
Data set [6] has as its system Danio rerio. The data set can be described thus: Cardioprotective activity in myl7:EGFP transgenic zebra fish embryo assessed as recovery of in DOX-induced heart rate impairment at 100 uM dosed at 24 hpf and measured 72 hpf by fluorescent microscopy. The format is functional, organism-based.
A short description of data set [7]: Toxicity in myl7:EGFP transgenic zebra fish embryo assessed as reduction in survival rate at 25 to 100 uM dosed at 24 hpf and measured 96 hpf. The conditions noted are these: zebrafish, in vivo. The format is organism-based, Danio rerio.
Data set [8] is described as follows: Toxicity in myl7:EGFP transgenic zebra fish embryo assessed as reduction in survival rate dosed at 24 hpf and measured 96 hpf. The conditions noted are these: zebrafish, in vivo. The format is organism-based, Danio rerio.

As usually defined, the LC50 is the concentration that kills 50% of the test population. As for `C[C@]12CC[C@H]3[C@]4(C)CCC[C@@](C)(C(=O)O)[C@H]4CC[C@@]3(C1)[C@H](C=O)[C@H]2O`, in data set [1], the LC50 came to 92.61 µM. Moreover, the outcome in data set [2], in data set [3], in data set [4], in data set [5] and in data set [6] was Active. For the same molecule, the Activity entry in data set [7] is recorded as “Non-Toxic”.

As for `C[C@]12CC[C@H]3[C@]4(C)CCC[C@@](C)(C(=O)O)[C@H]4CC[C@@]3(C1)[C@H](C=O)C2=O`, the outcome in data set [2], in data set [3], in data set [4], in data set [5] and in data set [6] was inactive. The Activity entry in data set [7] was “Non-Toxic”.

For `C[C@]12CC[C@H]3[C@]4(C)CCC[C@@](C)(C(=O)O)[C@H]4CC[C@@]3(C1)[C@H](CO)[C@H]2O`, the LC50 in data set [1] amounted to 68.5 µM. The result in data set [2], in data set [3], in data set [4], in data set [5] and in data set [6] was Active. Also, in data set [7], the Activity entry is reported as “Non-Toxic”.

Turning to `C[C@@]12CC[C@@H]3[C@@](CC[C@H]4[C@@]3(C)CCC[C@@]4(C)C(=O)OCCCCCCCC(=O)O)(C[C@H]1O)C2`, in data set [1], the result was inactive. In addition, the LD in data set [8] fell in the range of 50 to 100 µM.

For the molecule `C[C@]12CC[C@H]3[C@]4(C)CCC[C@@](C)(C(=O)O)[C@H]4CC[C@@]3(C1)[C@H](C(=O)O)[C@H]2O`, the LC50 in data set [1] turned out to be 66.62 µM. Further, the result in data set [2], in data set [3], in data set [4], in data set [5] and in data set [6] was Active. The Activity entry in data set [7] is reported as “Non-Toxic”.

Turning to `C[C@@]12CC[C@@H]3[C@@](CC[C@H]4[C@@]3(C)CCC[C@@]4(C)C(=O)OCCCCCCCCO)(C[C@H]1O)C2`, the outcome in data set [1] was inactive. Besides, the LD in data set [8] was 50 to 100 µM.

Consider `C[C@@]12CC[C@@H]3[C@@](CC[C@H]4[C@@]3(C)CCC[C@@]4(C)C(=O)OCCO)(C[C@H]1O)C2`, for which the result in data set [1] was inactive.

`C[C@@]12CC[C@@H]3[C@@](CC[C@H]4[C@@]3(C)CCC[C@@]4(C)C(=O)OCCCCCCO)(C[C@H]1O)C2`: in data set [1], the outcome was inactive. For the same molecule, in data set [8], the LD lay within 50 to 100 µM.

Regarding `C[C@]12CC[C@H]3[C@]4(C)CCC[C@@](C)(C(=O)O)[C@H]4CC[C@@]3(C1)[C@H](CO)C2=O`, the LC50 in data set [1] stood at 74.83 µM. Also, the outcome in data set [2], in data set [3], in data set [4], in data set [5] and in data set [6] was inactive. In addition, in data set [7], the Activity entry is recorded as “Non-Toxic”.

In the case of `C[C@@]12CC[C@@H]3[C@@](CC[C@H]4[C@@]3(C)CCC[C@@]4(C)C(=O)OCCCCCC(=O)O)(C[C@H]1O)C2`, in data set [1], the result was inactive. Moreover, in data set [8], the LD fell in the range of 50 to 100 µM.
